Two molecules from patent US20250073199A1, “Polymyxin Antibiotic Synergist and Anti-Gram-Negative Bacteria Pharmaceutical Composition” (Artivila Biopharma, priority 2022, published 2025) can be followed below.

Where only a bound is given, the exact number is not on record here.

Experiment [1] deals with standard strain of Klebsiella pneumoniae ATCC13883. Nature of the experiment: Chessboard combination test, bacterial inhibition rate / MIC / FIC. Format: cell-based. The conditions noted are these: FIG. 1. The procedure: (§1) 1) a standard strain of Klebsiella pneumoniae ATCC13883, a clinical resistant strain of Klebsiella pneumoniae 38206, a standard strain of Acinetobacter baumannii ATCC19606, a standard strain of Escherichia coli ATCC25922, and a standard strain of Pseudomonas aeruginosa ATCC27853 were respectively cultured at 37° C. and under shaking at 220 rpm until OD600=0.6-0.8, where OD600 referred to the absorbance of the solution at a wavelength of 600 nm.
(§2) 2) The density of each bacterial culture with OD600=0.6-0.8 cultured in step 1) was adjusted to OD600=0.001 and placed in a chessboard experimental device.
(§3) 3) Polymyxin B was subjected to 2-fold serial dilution along the horizontal axis, and dronedarone was subjected to 2-fold serial dilution along the vertical axis.
(§4) 4) A blank group (added with a LB broth medium) and a control group (added with a LB broth medium and the standard bacterial solution cultured in step 1).
(§5) 5) The final volume in each well of a 96-well plate was controlled to be 100 μL. After incubation for 18 h, each well was added with 10 μL of MTT, incubated at a condition of 37° C. with protection from light for 30 min, and then determined for the absorbance at 600 nm with a microplate reader. The bacterial inhibition rate was calculated according to the formula: bacterial inhibition rate (%)=1−(OD600 of an experimental group−OD600 of the blank group)/(OD600 of the control group−OD600 of the blank group)×100%, and a bacterial calorimetry diagram was drawn (the results were shown in FIGS. 1-5).
(§6) The calculation equation of the FIC index was as follows:
(§7) FIC=MICab/MICa+MICba/MICb=FICa+FICb, wherein a represented the dronedarone, b represented the polymyxin B, MICab was a MIC value of a combination of the dronedarone and the polymyxin B, MICba was a MIC value of a combination of the polymyxin B and the dronedarone, MICa or MICb was a MIC value of the dronedarone or the polymyxin B, respectively, and FICa or FICb was a FIC value of the dronedarone or the polymyxin B, respectively.

Experiment [2] concerns standard strain of Escherichia coli ATCC25922. Described as above. The class given is cell-based. The settings on record: FIG. 4. As to the method: as §1, §2, §3, §4, §5, §6, §7
Experiment [3] relates to clinical resistant strain of Klebsiella pneumoniae 38206. The experiment is described as above. Format: cell-based. The conditions noted are these: FIG. 2. As to the method: as §1, §2, §3, §4, §5, §6, §7
The subject of experiment [4] is standard strain of Pseudomonas aeruginosa ATCC27853. The description is as above. The conditions noted are these: FIG. 5. Format: cell-based. The procedure:
as §1, §2, §3, §4, §5, §6, §7

In experiment [5] the test system is standard strain of Acinetobacter baumannii ATCC19606. Described as above. The class given is cell-based. The conditions noted are these: FIG. 3. The procedure: as §1, §2, §3, §4, §5, §6, §7
The subject of experiment [6] is clinical polymyxin B-resistant strain of Klebsiella pneumoniae (38206). As to the kind of experiment: Mouse lung infection model, survival. Format: in vivo, BALB/c female mice. The settings on record: intraperitoneal injection, 7 days. As to the method: The dronedarone and the polymyxin B were combined to form a pharmaceutical composition, and used in combination in a mouse infection model to further illustrate the present disclosure.
1) Establishment of lung infection model: 60 BALB/c female mice aged 6-8 weeks (weighing about 20 g) were injected intrapulmonically with a lethal dose of a clinical polymyxin B-resistant strain of Klebsiella pneumoniae (38206) to establish an infection model. The concentration of the clinical polymyxin B-resistant strain of Klebsiella pneumoniae 38206 was 1.0×10^8 CFUs per mouse;
2) Group treatment: The female mice were randomly divided into six groups (n=10 mice per group), and treated with the drug through intraperitoneal injection.
Among them, the six groups included a control group (injected with a PBS buffer), a treatment group I (injected with 0.2 mg/kg of the polymyxin B alone), a treatment group II (injected with 10 mg/kg of the dronedarone alone), a treatment group III (injected with a mixed solution of 0.2 mg/kg of the polymyxin B and 1 mg/kg of the dronedarone), a treatment group IV (injected with a mixed solution of 0.2 mg/kg of the polymyxin B and 5 mg/kg of the dronedarone), and a treatment group V (injected with a mixed solution of 0.2 mg/kg of the polymyxin B and 10 mg/kg of the dronedarone). […]

[7] abbreviates: in combination with dronedarone 2.5 μg/mL.
Setting [8] is: polymyxin B 2 μg/mL, dronedarone not used.
Setting [9] is: in combination with dronedarone 5 μg/mL.
The mark [10] stands for this setting: polymyxin B 1 μg/mL, dronedarone not used.
Where [11] appears, read: in combination with polymyxin B 0.25 μg/mL.

As for polymyxin B, the “MICba (MIC of polymyxin B after combination with dronedarone)” value is 0.13 µg/mL in experiment [1] (setting [7]); 0.25 µg/mL in experiment [2] (setting [9]); 4 µg/mL in experiment [3] (setting [7]); 1 µg/mL in experiment [4] (in combination with dronedarone 10 μg/mL); 0.25 µg/mL in experiment [5] (setting [9]). The inhibition percentage is reported as 100% in experiment [1] (setting [8]); 100% in experiment [2] (setting [10]); 100% in experiment [3] (polymyxin B 16 μg/mL, dronedarone not used); 100% in experiment [4] (setting [8]); 100% in experiment [5] (setting [10]). For the same molecule, the “MIC used alone (MICa, MICb)” value in experiment [1] (used alone) amounted to 2 µg/mL; in experiment [2] (used alone) it was 1 µg/mL; in experiment [3] (used alone) it was 16 µg/mL; in experiment [4] (used alone) it was 2 µg/mL; in experiment [5] (used alone) it was 2 µg/mL. Also, the survival rate in experiment [6] (polymyxin B alone 0.2 mg/kg) stood at 10%.

Usually inhibition stands for the relative decrease from the control value, in per cent. What is called MIC is the lowest concentration that inhibits growth of the organism. Regarding `CCCCc1oc2ccc(NS(C)(=O)=O)cc2c1C(=O)c1ccc(OCCCN(CCCC)CCCC)cc1` [dronedarone, N-[2-butyl-3-[4-[3-(dibutylamino)propoxy]benzoyl]-1-benzofuran-5-yl]methanesulfonamide], the inhibition at 20 µg/mL in experiment [1] (Klebsiella pneumoniae, ATCC13883, dronedarone alone at highest concentration 20 μg/mL, no polymyxin B, read-out: bacterial inhibition percentage) is around 0%; in experiment [2] (Escherichia coli, ATCC25922, dronedarone alone at highest concentration 20 μg/mL, no polymyxin B, read-out: bacterial inhibition percentage), around 0%; in experiment [3] (Klebsiella pneumoniae, dronedarone alone at highest concentration 20 μg/mL, no polymyxin B, read-out: bacterial inhibition percentage), around 0%; in experiment [4] (Pseudomonas aeruginosa, ATCC27853, dronedarone alone at highest concentration 20 μg/mL, no polymyxin B, read-out: bacterial inhibition percentage) it was around 0%; in experiment [5] (Acinetobacter baumannii, ATCC19606, dronedarone alone at highest concentration 20 μg/mL, no polymyxin B, read-out: bacterial inhibition percentage), around 0%. Further, the minimum inhibitory concentration (MIC) is above 20 µg/mL in experiment [1] (Klebsiella pneumoniae, ATCC13883, used alone, read-out: MIC used alone (MICa, MICb)); above 20 µg/mL in experiment [2] (Escherichia coli, ATCC25922, used alone, read-out: MIC used alone (MICa, MICb)); above 20 µg/mL in experiment [3] (Klebsiella pneumoniae, used alone, read-out: MIC used alone (MICa, MICb)); above 20 µg/mL in experiment [4] (Pseudomonas aeruginosa, ATCC27853, used alone, read-out: MIC used alone (MICa, MICb)); above 20 µg/mL in experiment [5] (Acinetobacter baumannii, ATCC19606, used alone, read-out: MIC used alone (MICa, MICb)). In addition, the “MICab (MIC of dronedarone after combination with polymyxin B)” value stood at 2.5 µg/mL in experiment [1] (in combination with polymyxin B 0.13 μg/mL); 5 µg/mL in experiment [2] (setting [11]); 2.5 µg/mL in experiment [3] (in combination with polymyxin B 4 μg/mL); 10 µg/mL in experiment [4] (in combination with polymyxin B 1 μg/mL); 5 µg/mL in experiment [5] (setting [11]). Also, the survival rate in experiment [6] (dronedarone alone 10 mg/kg) stood at 10%.
